Measurements published in patent publication US20250353841A1 (BIOGEN MA INC., priority 2022, published 2025).

Tested on: mutant Huntington (HTT) protein
Experiment: HTT Mutant HTRF iPSC assay (mHTT protein lowering)
Format: cell-based
Settings: human iPSC derived from a HTT patient with a poly-Q49 mutation

Q: With `Cn1cc2cc(-c3cc(F)c4nc(C5CNC5)cn4c3)cc(F)c2n1` [Compound 23, 5-(2-(azetidin-3-yl)-8-fluoroimidazo[1,2-a]pyridin-6-yl)-7-fluoro-2-methyl-2H-indazole] as the compound, how does the IC50 read?
A: 1000 to 9000 nM

Q: Which IC50 does the source give for `Cc1cn2nc(-c3cc(F)c4[nH]c(C5CCNC(C)C5)nc4c3)cc(C)c2n1` (centres unmarked) [Compound 418, 6-(7-fluoro-2-(2-methylpiperidin-4-yl)-1H-benzo[d]imidazol-5-yl)-2,8-dimethylimidazo[1,2-b]pyridazine] here?
A: 100 to 1000 nM

Q: `Cc1nc2ccc(-c3cc(F)c4nc(C5CCNCC5)cn4c3)nn2n1` [Compound 577, 6-(8-fluoro-2-(piperidin-4-yl)imidazo[1,2-a]pyridin-6-yl)-2-methyl-[1,2,4]triazolo[1,5-b]pyridazine] was tested. Which IC50 did it give?
A: < 100 nM

Q: Which IC50 does the source give for `CC(=O)N1CCC(c2cn3cc(-c4cc(C)c5nc(C)cn5n4)cc(F)c3n2)CC1` [Compound 74, 1-[4-[6-(2,8-dimethylimidazo[1,2-b]pyridazin-6-yl)-8-fluoro-imidazo[1,2-a]pyridin-2-yl]-1-piperidyl]ethanone] here?
A: 100 to 1000 nM

Q: For `Cc1cn2cc(-c3cc(F)c4nc(C5CCNCC5)cn4c3)cc(F)c2n1` [Compound 97, 8,8′-difluoro-2-methyl-2′-(piperidin-4-yl)-6,6′-biimidazo[1,2-a]pyridine], which IC50 is on record?
A: 100 to 1000 nM

Q: `Cn1cc2cc(-c3cc(F)c4nc(C56CC(N)(CO5)C6)cn4c3)cc(F)c2n1` [Compound 68] was tested. Which IC50 did it give?
A: 1000 to 9000 nM

Q: For `CN1CCC(c2cn3cc(-c4ccc5nn(C)cc5c4)cc(F)c3n2)CC1` [Compound 28, 5-(8-fluoro-2-(1-methylpiperidin-4-yl)imidazo[1,2-a]pyridin-6-yl)-2-methyl-2H-indazole], which IC50 is on record?
A: 1000 to 9000 nM

Q: How did the IC50 turn out when `Cc1cn2nc(-c3cc(F)c4[nH]c(C5C6CNCC65)nc4c3)cc(C)c2n1` (centres unmarked) [Compound 429, 6-(2-(3-azabicyclo[3.1.0]hexan-6-yl)-7-fluoro-1H-benzo[d]imidazol-5-yl)-2,8-dimethylimidazo[1,2-b]pyridazine] was run?
A: < 100 nM

Q: Which IC50 does the source give for `CN1C(=O)Cc2ccc(-c3cc(F)c4nc(C5CCNCC5)cn4c3)cc21` [Compound 55, 6-(8-fluoro-2-(piperidin-4-yl)imidazo[1,2-a]pyridin-6-yl)-1-methylindolin-2-one] here?
A: 1000 to 9000 nM

Q: For `Cc1cn2nc(-c3cc(F)c4nc(C5CCNC(C)(C)C5)cn4c3)cc(C)c2n1` (single isomer, unassigned) [Compound 235], which IC50 is on record?
A: < 100 nM

Q: Which IC50 does the source give for `Cc1cn2nc(-c3cc(F)c4nc(NC(=O)C5CCN(C)CC5)nn4c3)cc(C)c2n1` [Compound 317, N-(6-(2,8-dimethylimidazo[1,2-b]pyridazin-6-yl)-8-fluoro-[1,2,4]triazolo[1,5-a]pyridin-2-yl)-1-methylpiperidine-4-carboxamide] here?
A: 100 to 1000 nM

Q: With `Cc1cn2nc(-c3ccc4nc([C@H]5[C@@H]6CN(C)C[C@@H]65)cn4c3)cc(C)c2n1` [Compound 554, 2,8-dimethyl-6-(2-((1R,5S,6r)-3-methyl-3-azabicyclo[3.1.0]hexan-6-yl)imidazo[1,2-a]pyridin-6-yl)imidazo[1,2-b]pyridazine] as the compound, how does the IC50 read?
A: 100 to 1000 nM

Q: Which IC50 does the source give for `Cc1cc(-c2cc(F)c3nc(C4CCNCC4)cn3c2)nn2cnnc12` [Compound 105, 6-(8-fluoro-2-(piperidin-4-yl)imidazo[1,2-a]pyridin-6-yl)-8-methyl-[1,2,4]triazolo[4,3-b]pyridazine] here?
A: 1000 to 9000 nM

Q: For `Cn1cc2cc(-c3cc(F)c4nn(C5CCNCC5)nc4c3)cc(F)c2n1` [Compound 138, 4-fluoro-6-(7-fluoro-2-methyl-2H-indazol-5-yl)-2-(piperidin-4-yl)-2H-benzo[d][1,2,3]triazole], which IC50 is on record?
A: 100 to 1000 nM

Q: For `COCCN1CCC(n2cc3cc(-c4cc(C(F)(F)F)c5nc(C)cn5n4)cc(F)c3n2)CC1` [Compound 373, 6-(7-fluoro-2-(1-(2-methoxyethyl)piperidin-4-yl)-2H-indazol-5-yl)-2-methyl-8-(trifluoromethyl)imidazo [1,2-b]pyridazine], which IC50 is on record?
A: < 100 nM

Q: How did the IC50 turn out when `Cc1cn2nc(-c3cc(F)c4nc(NC(=O)C56CNC(C5)C6)nn4c3)cc(C)c2n1` [Compound 320, N-(6-(2,8-dimethylimidazo[1,2-b]pyridazin-6-yl)-8-fluoro-[1,2,4]triazolo[1,5-a]pyridin-2-yl)-2-azabicyclo[2.1.1]hexane-4-carboxamide] was run?
A: 1000 to 9000 nM

Q: Which IC50 does the source give for `Cc1cn2nc(-c3cc(F)c4nc(C5CCN(CC6CC6)CC5)cn4c3)cc(C)c2n1` [Compound 165, 6-(2-(1-(cyclopropylmethyl)piperidin-4-yl)-8-fluoroimidazo[1,2-a]pyridin-6-yl)-2,8-dimethylimidazo[1,2-b]pyridazine] here?
A: < 100 nM

Q: With `Cc1cn2nc(-c3cc(F)c4nn(C5CCNCC5)cc4c3)ccc2n1` [Compound 365, 6-(7-fluoro-2-(piperidin-4-yl)-2H-indazol-5-yl)-2-methylimidazo[1,2-b]pyridazine] as the compound, how does the IC50 read?
A: < 100 nM

Q: With `Cn1cc2cc(-c3cc(F)c4nc(C5CCNC(C)(C)C5)cn4c3)cc(F)c2n1` (centres unmarked) [Compound 63, 5-(2-(2,2-dimethylpiperidin-4-yl)-8-fluoroimidazo[1,2-a]pyridin-6-yl)-7-fluoro-2-methyl-2H-indazole] as the compound, how does the IC50 read?
A: 1000 to 9000 nM

Q: `Cc1cn2nc(-c3cc(F)c4[nH]c(C5CC6(CCNC6)C5)nc4c3)cc(C)c2n1` (centres unmarked) [Compound 420, 6-(7-fluoro-2-(6-azaspiro[3.4]octan-2-yl)-1H-benzo[d]imidazol-5-yl)-2,8-dimethylimidazo[1,2-b]pyridazine] was tested. Which IC50 did it give?
A: 100 to 1000 nM

Q: `Cc1cn2nc(-c3cc(F)c4nc([C@H]5[C@@H]6CN(CC(F)F)C[C@@H]65)cn4c3)cc(C)c2n1` [Compound 217, 6-(2-((1R,5S,6r)-3-(2,2-difluoroethyl)-3-azabicyclo[3.1.0]hexan-6-yl)-8-fluoroimidazo[1,2-a]pyridin-6-yl)-2,8-dimethylimidazo[1,2-b]pyridazine] was tested. Which IC50 did it give?
A: 100 to 1000 nM

Q: How did the IC50 turn out when `Cc1cn2nc(-c3cc(F)c4nc(C5CC6(CNC6)C5)cn4c3)cc(C)c2n1` [Compound 107] was run?
A: 100 to 1000 nM

Q: How did the IC50 turn out when `Cc1cn2cc(-c3cc(F)c4nc(C5CCNCC5)oc4c3)cc(F)c2n1` [Compound 156, 4-fluoro-6-(8-fluoro-2-methylimidazo[1,2-a]pyridin-6-yl)-2-(piperidin-4-yl)benzo[d]oxazole] was run?
A: 1000 to 9000 nM

Q: `COCCN1CC(NC(=O)c2cn3cc(-c4cc(C)c5nc(C)cn5n4)cc(F)c3n2)C1` [Compound 338, 6-(2,8-dimethylimidazo[1,2-b]pyridazin-6-yl)-8-fluoro-N-[1-(2-methoxyethyl)azetidin-3-yl]imidazo[1,2-a]pyridine-2-carboxamide] was tested. Which IC50 did it give?
A: < 100 nM

Q: For `CN1CCC(N(C)C(=O)c2cn3cc(-c4cc(F)c5nn(C)cc5c4)cc(F)c3n2)CC1` [Compound 129, 8-fluoro-6-(7-fluoro-2-methyl-indazol-5-yl)-N-methyl-N-(1-methyl-4-piperidyl)imidazo[1,2-a]pyridine-2-carboxamide], which IC50 is on record?
A: 1000 to 9000 nM

Q: How did the IC50 turn out when `Cc1cn2nc(-c3cc(F)c4nn(C5CCN(C)CC5)nc4c3)cc(C(F)F)c2n1` [Compound 375, 6-[8-(difluoromethyl)-2-methyl-imidazo[1,2-b]pyridazin-6-yl]-4-fluoro-2-(1-methyl-4-piperidyl)benzotriazole] was run?
A: 100 to 1000 nM

Q: For `Cc1cn2nc(-c3cn4cc(C5CC6CCC(C5)N6)cc(F)c4n3)cc(C)c2n1` (centres unmarked) [Compound 130], which IC50 is on record?
A: 1000 to 9000 nM

Q: How did the IC50 turn out when `COc1cc(-c2cc(F)c3nc(C)cn3c2)cc2nn(C3CCNCC3)nc12` [Compound 548, 6-(8-fluoro-2-methyl-imidazo[1,2-a]pyridin-6-yl)-4-methoxy-2-(4-piperidyl)benzotriazole] was run?
A: 1000 to 9000 nM

Q: With `Cc1cn2nc(-c3cc(F)c4nc(C56CC(N(C)C7CC7)(C5)C6)cn4c3)cc(C)c2n1` [Compound 208, N-cyclopropyl-3-(6-(2,8-dimethylimidazo[1,2-b]pyridazin-6-yl)-8-fluoroimidazo[1,2-a]pyridin-2-yl)-N-methylbicyclo[1.1.1] pentan-1-amine] as the compound, how does the IC50 read?
A: 100 to 1000 nM

Q: For `Cc1cn2nc(-c3cc(F)c4nc(NC(=O)CC5CCCN5C)nn4c3)cc(C)c2n1` (racemic) [Compound 329, N-(6-(2,8-dimethylimidazo[1,2-b]pyridazin-6-yl)-8-fluoro-[1,2,4]triazolo[1,5-a]pyridin-2-yl)-2-(1-methylpyrrolidin-2-yl)acetamide], which IC50 is on record?
A: 100 to 1000 nM

Q: `Cc1cn2nc(-c3cc(F)c4nc(NC5CCN6CCCC6C5)oc4c3)cc(C)c2n1` (centres unmarked) [Compound 482, 6-(2,8-dimethylimidazo[1,2-b]pyridazin-6-yl)-4-fluoro-N-(octahydroindolizin-7-yl)benzo[d]oxazol-2-amine] was tested. Which IC50 did it give?
A: < 100 nM

Q: `Cc1cc2nc(-c3cc(F)c4nc(C5CCNCC5)cn4c3)ncc2s1` [Compound 201, 2-(8-fluoro-2-(piperidin-4-yl)imidazo[1,2-a]pyridin-6-yl)-6-methylthieno[3,2-d]pyrimidine] was tested. Which IC50 did it give?
A: 100 to 1000 nM

Q: How did the IC50 turn out when `Cc1cn2nc(-c3cc(F)c4nc(C5CC6(CCNCC6)C5)cn4c3)cc(C)c2n1` [Compound 78, 6-(8-fluoro-2-(7-azaspiro[3.5]nonan-2-yl)imidazo[1,2-a]pyridin-6-yl)-2,8-dimethylimidazo[1,2-b]pyridazine] was run?
A: < 100 nM

Q: Which IC50 does the source give for `Cc1cn2nc(-c3cc(F)c4nc(C(=O)N(C)C5CCN(C)CC5)cn4c3)cc(C)c2n1` [Compound 332, 6-(2,8-dimethylimidazo[1,2-b]pyridazin-6-yl)-8-fluoro-N-methyl-N-(1-methylpiperidin-4-yl)imidazo[1,2-a]pyridine-2-carboxamide] here?
A: < 100 nM

Q: `Cc1cc2nc(-c3cc(F)c4nn(C5CCN(C)CC5)cc4c3)cc(C)n2n1` [Compound 360, 5-(7-fluoro-2-(1-methylpiperidin-4-yl)-2H-indazol-5-yl)-2,7-dimethylpyrazolo[1,5-a]pyrimidine] was tested. Which IC50 did it give?
A: 100 to 1000 nM

Q: For `Cc1cn2nc(-c3cc(Cl)c4nc(C5CCNCC5)cn4c3)cc(C)c2n1` [Compound 556, 6-(8-chloro-2-(piperidin-4-yl)imidazo[1,2-a]pyridin-6-yl)-2,8-dimethylimidazo[1,2-b]pyridazine], which IC50 is on record?
A: 100 to 1000 nM

Q: Which IC50 does the source give for `COc1cc(-c2cc(F)c3nc(C)cn3c2)cc2cn(C3CCNCC3)nc12` [Compound 545, 5-(8-fluoro-2-methylimidazo[1,2-a]pyridin-6-yl)-7-methoxy-2-(piperidin-4-yl)-2H-indazole] here?
A: 1000 to 9000 nM

Q: For `Cc1cn2nc(-c3cc(F)c4nc([C@]56CC[C@@H](C5)NC6)cn4c3)cc(C)c2n1` (single isomer, unassigned) [Compound 115], which IC50 is on record?
A: 100 to 1000 nM
